Data reported in patent US7148254B2, “2-Phenylbenzofuran derivatives, a process for preparing them, and their use” (Sanofi-Aventis Deutschland GmbH, priority 2003, dated 2006).

What was measured:
[1] = Physicochemical properties: solubility; settings: organic solvents
[2] = target: N-acetylglucosamine-1-phosphate uridyltransferase (GlmU) (Escherichia coli, UniProt P0ACC7); test: GlmU inhibition, biochemical test (384-plate format, DTNB, absorption at 405 nm); design: species or system bacterial; settings: 60 minutes of incubation at 30° C.; read-out: inhibition constant, IC50, inhibitory effect on the enzyme GlmU
Procedure: The inhibition of the GlmU can be determined in a biochemical test using the following method:
The assay was carried out in a 384-plate format. The reaction volume was 40 μl per test. The reaction mixture contained 10 μl of test substance and 15 μl of substrate solution consisting of acetylCoA and D-glucosamine-1-phosphate. The enzyme reaction was started by adding 15 μl of GlmU enzyme solution. After 60 minutes of incubation at 30° C., the reaction was stopped by adding 10 μl of developer reagent (DTNB dissolved in guanidine). The plates were then centrifuged (1 min, 1000 rpm) and stored for a further 45 minutes at room temperature before the absorption was read at 405 nm in a photometer. In order to be able to calculate the inhibitory activity of the test compounds, positive controls (signal with GlmU) and negative controls (signal without GlmU) were included on each plate. In order to exclude falsely positive samples, which could be caused by nonspecific substance effects (e.g. color), blank plates, which contained the substances but no GlmU, were included in parallel with the test plates. After correction for the blanks, the inhibitory activities of the substances were calculated in accordance with the following formula: Inhibition(%)=100×[1−(OD405 nm substance/OD405 nm positive control)]

[3] = Physicochemical properties: stability

N-acetylglucosamine-1-phosphate uridyltransferase (GlmU), sequence (P0ACC7 whole entry): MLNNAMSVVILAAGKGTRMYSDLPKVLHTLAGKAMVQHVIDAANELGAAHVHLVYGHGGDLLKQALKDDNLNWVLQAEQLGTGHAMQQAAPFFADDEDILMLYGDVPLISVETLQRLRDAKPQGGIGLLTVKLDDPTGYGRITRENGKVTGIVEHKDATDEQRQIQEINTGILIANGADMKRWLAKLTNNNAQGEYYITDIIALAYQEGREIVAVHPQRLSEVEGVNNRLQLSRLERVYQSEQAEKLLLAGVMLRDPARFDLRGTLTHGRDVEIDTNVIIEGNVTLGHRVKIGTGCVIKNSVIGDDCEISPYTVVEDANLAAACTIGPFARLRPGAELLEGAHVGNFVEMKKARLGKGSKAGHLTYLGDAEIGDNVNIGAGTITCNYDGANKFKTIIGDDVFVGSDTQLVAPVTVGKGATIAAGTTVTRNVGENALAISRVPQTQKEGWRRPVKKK

Cc1c(O)c(O)c(O)c(C=O)c1-c1cc2c(C=O)c(C)c(O)c(O)c2o1 [(II)]
solubility [1]: soluble in medium-polar and polar organic solvents | IC50 [2]: 1000 nM | stability ([3]; neutral and mildly acid medium): Stable in neutral and mildly acid medium | stability ([3]; strongly acidic and alkaline solutions, under the influence of oxygen): unstable in strongly acidic and alkaline solutions and under the influence of oxygen
